Laboratory results reported in patent publication US20250345446A1 (Draupnir Bio ApS, priority 2022, published 2025).
Read-outs that look alike come from different tables or passages of the source. Residues, ends and D or L forms follow the SMILES beside them. *: point of attachment. Biotin = O=C1N[C@H]2[C@H](CS[C@H]2CCCCC(=O)*)N1

Key:
[1] = molecular target: T1, soluble ectodomain of sortilin-6his (Homo sapiens, UniProt Q99523, V650M); experiment: MST binding to soluble ectodomain of sortilin-6his
T1 construct: the soluble ectodomain of sortilin-6his is measured by microscale thermophoresis (MST)

[2] = tested on: HEK293 cells expressing full length sortilin receptor; experiment: Cellular uptake of NA650 in HEK293/sortilin cells; assay type: cell-based; conditions: Table 6; NA650 (100 nM), 3 h, biotin warhead compounds
Procedure: Cellular uptake of NA650 was investigated in HEK293 cells expressing full length sortilin receptor (Petersen et. al.). Cells were seeded in poly-L-lysine coated 96-well plates (Perkin Elmer) (40K/well) in 50 μL culture medium (DMEM (Lonza)+10% FBS (SigmaAldrich)+1% penicillin-streptomycin (SigmaAldrich)+1% GlutaMAX (Gibco)+100 μg/mL Zeocin (Invitrogen)) and incubated overnight in cell incubator (37° C., humidified, 5% CO2).
Culture medium was replaced with assay medium (DMEM (Lonza)+10% fetal bovine serum (SigmaAldrich)+1% penicillin-streptomycin (SigmaAldrich)+1% GlutaMAX (Gibco)) containing NA650 (Invitrogen) (100 nM) (Thermo Fischer) and peptidic bifunctional compounds (9.8 nM to 10 μM). Cells were incubated for 3 h in cell incubator before they were washed in dPBS (Bionordika). The DyLight650 signal in the cell layer was detected using a fluorescence plate reader (BMG Labtech Clariostar).
Cellular uptake of NA650 was investigated in HEK293 cells expressing full length sortilin receptor using a methodology analogous to example 3.

[3] = molecular target: T2, Streptavidin-d2 and Sortilin-6His (UniProt P22629+Q99523, V650M); experiment: TR-FRET ternary complex formation streptavidin / small molecule bifunctional compound / sortilin; assay type: binding; conditions: Table 5; 5 μM-0.6 pM, […] incubation
T2 construct: ternary complex formation composed of streptavidin, bifunctional compound and sortilin-6his

[4] = molecular target: streptavidin, bifunctional compound and sortilin-6his (UniProt P22629+Q99523, V650M); experiment: TR-FRET ternary complex formation streptavidin / bifunctional peptide / sortilin-6his; conditions: Table 2; […] incubation, HTRF ratio 665/620 nm
Procedure: In these experiments, the compounds of interest were titrated over 24-point in a 384-well TTP LVDS plate (SPT Labtech) to a final buffer composition of 50 mM Bis-Tris Propane pH 8, 50 mM NaCl, 0.05% Tween20, with or without 10% DMSO using a Mosquito LV pipetting robot (SPT Labtech).
The reaction was allowed to incubate for 2.5 hours at room temperature, at which point the HTRF signal ratio at 665/620 nm was determined using a plate reader (ClarioStar, BMG Labtech). All reactions were run in triplicates and data was represented as HTRF ratio as a function of bifunctional compound concentration.

[5] = tested on: HEK293 cells expressing full length sortilin receptor; experiment: Cellular uptake of AlexaFluor488-anti-DNP antibody; assay type: cell-based; conditions: Table 7; AlexaFluor488-anti-DNP antibody (100 nM), 3 h, DNP warhead compounds
Source text: In this example, the small molecule degraders consist of a sortilin binder linked to warhead DNP to target anti-DNP antibodies (BF001 to BF016)
Cellular uptake of AlexaFluor488-anti-DNP antibody (Thermo Fisher) was investigated in HEK293 cells expressing full length sortilin receptor in a methodology analogous to example 3.

[6] = molecular target: T3, Sortilin-6His (Homo sapiens (Human), UniProt Q99523 78-755); experiment: MST on labelled sortilin-6his ectodomain; KD score: ++ <100 nM, + 100-2000 nM
T3 construct: In MST it was labelled non-covalently with RED-tris-NTA; also called soluble ectodomain of sortilin-6his; fluorescent sortilin-6his

[7] = molecular target: T3, Sortilin-6His; experiment: TR-FRET (HTRF) ternary complex streptavidin-d2 / biotin-peptide / sortilin-6His; AUC score: + <5000, ++ >5000
[8] = Table 1, biotin-linker-peptide bifunctional compounds, MST, read-out: KD score, binding to sortilin (Kd)

T3 sequence (Q99523 78-755 V650M limits assumed): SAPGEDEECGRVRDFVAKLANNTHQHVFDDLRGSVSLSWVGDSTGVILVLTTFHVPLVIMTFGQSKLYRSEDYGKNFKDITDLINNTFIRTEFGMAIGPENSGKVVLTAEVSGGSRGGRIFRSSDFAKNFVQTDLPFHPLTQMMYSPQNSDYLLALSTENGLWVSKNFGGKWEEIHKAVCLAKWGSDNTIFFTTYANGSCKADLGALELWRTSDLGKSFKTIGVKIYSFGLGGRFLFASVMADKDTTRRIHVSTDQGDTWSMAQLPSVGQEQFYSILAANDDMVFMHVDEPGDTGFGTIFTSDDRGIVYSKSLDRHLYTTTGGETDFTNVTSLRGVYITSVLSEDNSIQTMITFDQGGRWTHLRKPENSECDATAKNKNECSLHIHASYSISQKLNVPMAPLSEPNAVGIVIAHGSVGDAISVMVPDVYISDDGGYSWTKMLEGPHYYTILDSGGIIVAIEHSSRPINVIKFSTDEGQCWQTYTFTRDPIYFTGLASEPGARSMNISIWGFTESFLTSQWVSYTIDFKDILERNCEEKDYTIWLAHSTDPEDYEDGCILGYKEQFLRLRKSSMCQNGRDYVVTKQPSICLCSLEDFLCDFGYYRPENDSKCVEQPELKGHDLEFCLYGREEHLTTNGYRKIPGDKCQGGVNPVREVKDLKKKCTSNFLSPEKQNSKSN
T1 sequence (Q99523 with tags, fused parts or gaps V650M): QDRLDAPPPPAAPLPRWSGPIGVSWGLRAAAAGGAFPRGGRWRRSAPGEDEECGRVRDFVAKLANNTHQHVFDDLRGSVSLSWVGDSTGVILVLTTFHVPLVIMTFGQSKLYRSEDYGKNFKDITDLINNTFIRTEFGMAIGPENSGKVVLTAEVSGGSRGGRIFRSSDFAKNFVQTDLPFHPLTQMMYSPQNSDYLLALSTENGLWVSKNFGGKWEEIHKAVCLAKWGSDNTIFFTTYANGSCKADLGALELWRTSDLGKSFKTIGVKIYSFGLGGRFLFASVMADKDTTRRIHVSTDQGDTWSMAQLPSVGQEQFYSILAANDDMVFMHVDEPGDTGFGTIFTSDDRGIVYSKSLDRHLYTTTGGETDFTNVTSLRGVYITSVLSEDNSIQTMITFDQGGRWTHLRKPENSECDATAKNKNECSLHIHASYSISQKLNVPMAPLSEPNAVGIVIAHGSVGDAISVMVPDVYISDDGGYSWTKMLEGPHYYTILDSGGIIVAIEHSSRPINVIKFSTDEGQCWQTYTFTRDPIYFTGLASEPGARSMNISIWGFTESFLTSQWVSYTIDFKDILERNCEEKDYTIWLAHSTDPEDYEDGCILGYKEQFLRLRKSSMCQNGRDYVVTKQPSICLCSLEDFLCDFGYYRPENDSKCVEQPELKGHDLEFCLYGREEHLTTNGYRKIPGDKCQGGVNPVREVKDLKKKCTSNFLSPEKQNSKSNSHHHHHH

CC(C)(C)CC[C@H](NC(=O)c1ccc(Oc2cccc(OCCOCCOCCOCCOCCOCCOCCOCCOCCNC(=O)CCCC[C@@H]3SC[C@@H]4NC(=O)N[C@@H]43)c2)nc1)C(=O)O [BF026, (2S)-2-[[6-[3-[2-[2-[2-[2-[2-[2-[2-[2-[2-[5-[(3aS,4S,6aR)-2-oxo-1,3,3a,4,6,6a-hexahydrothieno[3,4-d]imidazol-4-yl]pentanoylamino]ethoxy]ethoxy]ethoxy]ethoxy]ethoxy]ethoxy]ethoxy]ethoxy]ethoxy]phenoxy]pyridine-3-carbonyl]amino]-5,5-dimethyl-hexanoic acid]
Kd ([1]; Table 4, small molecule bifunctional compounds, MST, read-out: KD score, binding to sortilin (Kd)): 10 to 250 nM | AUC score, target internalization [2]: ++ (AUC > 100) | AUC score, ternary complex formation [3]: ++ (AUC > 25.000)

CC(C)C[C@H](NC(=O)[C@H](CC(C)C)NC(=O)[C@H](CCC(N)=O)NC(=O)[C@H](Cc1ccccc1)NC(=O)CNC(=O)CNC(=O)CNC(=O)[C@H](CO)NC(=O)CNC(=O)CNC(=O)CNC(=O)CNC(=O)[C@H](CO)NC(=O)CNC(=O)CNC(=O)CCCC[C@@H]1SC[C@@H]2NC(=O)N[C@@H]21)C(=O)O [compound 148] (Biotin-GGSGGGGSGGGFQLL-OH)
Kd [1, 8]: 100 to 2000 nM | AUC score, TR-FRET measurements of ternary complex formation [4]: ++ (AUC > 5000)

CC(C)C[C@H](NC(=O)[C@H](CC(C)C)NC(=O)[C@H](CCC(N)=O)NC(=O)[C@H](CCCNC(=N)N)NC(=O)CNC(=O)CNC(=O)CNC(=O)[C@H](CO)NC(=O)CNC(=O)CNC(=O)CNC(=O)CNC(=O)[C@H](CO)NC(=O)CNC(=O)CNC(=O)CCCC[C@@H]1SC[C@@H]2NC(=O)N[C@@H]21)C(=O)O [compound 149] (Biotin-GGSGGGGSGGGRQLL-OH)
Kd [1, 8]: 100 to 2000 nM | AUC score, TR-FRET measurements of ternary complex formation [4]: + (AUC < 5000)

CC(C)C[C@H](NC(=O)[C@H](CC(C)C)NC(=O)[C@H](CCC(N)=O)NC(=O)[C@H](Cc1ccccc1)NC(=O)CNC(=O)[C@H](CO)NC(=O)CNC(=O)CNC(=O)CNC(=O)CNC(=O)[C@H](CO)NC(=O)CNC(=O)CNC(=O)CCCC[C@@H]1SC[C@@H]2NC(=O)N[C@@H]21)C(=O)O [compound 145] (Biotin-GGSGGGGSGFQLL-OH)
Kd [1, 8]: < 100 nM | AUC score, TR-FRET measurements of ternary complex formation [4]: + (AUC < 5000)

CC(C)C[C@H](NC(=O)[C@H](CC(C)C)NC(=O)[C@H](CCC(N)=O)NC(=O)[C@H](CCCNC(=N)N)NC(=O)CNC(=O)[C@H](CO)NC(=O)CNC(=O)CNC(=O)CNC(=O)CNC(=O)[C@H](CO)NC(=O)CNC(=O)CNC(=O)CCCC[C@@H]1SC[C@@H]2NC(=O)N[C@@H]21)C(=O)O [compound 141] (Biotin-GGSGGGGSGRQLL-OH)
Kd [1, 8]: < 100 nM | AUC score, TR-FRET measurements of ternary complex formation [4]: + (AUC < 5000)

CC(C)C[C@H](NC(=O)[C@H](CC(C)C)NC(=O)[C@H](CCC(N)=O)NC(=O)[C@H](Cc1ccccc1)NC(=O)[C@H](CO)NC(=O)CNC(=O)CNC(=O)CNC(=O)CNC(=O)[C@H](CO)NC(=O)CNC(=O)CNC(=O)CNC(=O)CNC(=O)[C@H](CO)NC(=O)CNC(=O)CNC(=O)CCCC[C@@H]1SC[C@@H]2NC(=O)N[C@@H]21)C(=O)O [compound 146] (Biotin-GGSGGGGSGGGGSFQLL-OH)
Kd [1, 8]: 100 to 2000 nM | AUC score, TR-FRET measurements of ternary complex formation [4]: ++ (AUC > 5000)

CC(C)C[C@H](NC(=O)[C@H](CC(C)C)NC(=O)[C@H](CCC(N)=O)NC(=O)[C@H](CCCNC(=N)N)NC(=O)[C@H](CO)NC(=O)CNC(=O)CNC(=O)CNC(=O)CNC(=O)[C@H](CO)NC(=O)CNC(=O)CNC(=O)CNC(=O)CNC(=O)[C@H](CO)NC(=O)CNC(=O)CNC(=O)CCCC[C@@H]1SC[C@@H]2NC(=O)N[C@@H]21)C(=O)O [compound 142] (Biotin-GGSGGGGSGGGGSRQLL-OH)
Kd [1, 8]: < 100 nM | AUC score, TR-FRET measurements of ternary complex formation [4]: + (AUC < 5000)

CC(C)(C)CC[C@H](NC(=O)c1ccc(Oc2cccc(OCCOCCOCCOCCOCCOCCNc3ccc([N+](=O)[O-])cc3[N+](=O)[O-])c2)nc1)C(=O)O [BF004, (2S)-2-[[6-[3-[2-[2-[2-[2-[2-[2-(2,4-dinitroanilino)ethoxy]ethoxy]ethoxy]ethoxy]ethoxy]ethoxy]phenoxy]pyridine-3-carbonyl]amino]-5,5-dimethyl-hexanoic acid]
Kd [1]: 1 to 10 nM | AUC score, target internalization [5]: + (AUC < 10.000)

B1: Biotin-GGSGGGGSGGGGSRQLL-OH (peptide)
peptide: Biotin-GGSGGGGSGGGGSRQLL-OH
SMILES: CC(C)C[C@H](NC(=O)[C@H](CC(C)C)NC(=O)[C@H](CCC(N)=O)NC(=O)[C@H](CCCNC(=N)N)NC(=O)[C@H](CO)NC(=O)CNC(=O)CNC(=O)CNC(=O)CNC(=O)[C@H](CO)NC(=O)CNC(=O)CNC(=O)CNC(=O)CNC(=O)[C@H](CO)NC(=O)CNC(=O)CNC(=O)CCCC[C@@H]1SC[C@@H]2NC(=O)N[C@@H]21)C(=O)O
KD [6]: < 100 nM | AUC of TR-FRET (HTRF ratio vs compound concentration) for ternary complex formation [7]: < 5000 auc

B2: Biotin-GGSGGGGSGGGGSFQLL-OH (peptide)
peptide: Biotin-GGSGGGGSGGGGSFQLL-OH
SMILES: CC(C)C[C@H](NC(=O)[C@H](CC(C)C)NC(=O)[C@H](CCC(N)=O)NC(=O)[C@H](Cc1ccccc1)NC(=O)[C@H](CO)NC(=O)CNC(=O)CNC(=O)CNC(=O)CNC(=O)[C@H](CO)NC(=O)CNC(=O)CNC(=O)CNC(=O)CNC(=O)[C@H](CO)NC(=O)CNC(=O)CNC(=O)CCCC[C@@H]1SC[C@@H]2NC(=O)N[C@@H]21)C(=O)O
KD [6]: 100 to 2000 nM | AUC of TR-FRET (HTRF ratio vs compound concentration) for ternary complex formation [7]: > 5000 auc

B3: Biotin-GGSGGGGSGGGGSGGFQLL-OH (peptide)
peptide: Biotin-GGSGGGGSGGGGSGGFQLL-OH
SMILES: CC(C)C[C@H](NC(=O)[C@H](CC(C)C)NC(=O)[C@H](CCC(N)=O)NC(=O)[C@H](Cc1ccccc1)NC(=O)CNC(=O)CNC(=O)[C@H](CO)NC(=O)CNC(=O)CNC(=O)CNC(=O)CNC(=O)[C@H](CO)NC(=O)CNC(=O)CNC(=O)CNC(=O)CNC(=O)[C@H](CO)NC(=O)CNC(=O)CNC(=O)CCCC[C@@H]1SC[C@@H]2NC(=O)N[C@@H]21)C(=O)O
KD [6]: 100 to 2000 nM | AUC of TR-FRET (HTRF ratio vs compound concentration) for ternary complex formation [7]: > 5000 auc

B4: Biotin-GGSGGGGSGGGFQLL-OH (peptide)
peptide: Biotin-GGSGGGGSGGGFQLL-OH
SMILES: CC(C)C[C@H](NC(=O)[C@H](CC(C)C)NC(=O)[C@H](CCC(N)=O)NC(=O)[C@H](Cc1ccccc1)NC(=O)CNC(=O)CNC(=O)CNC(=O)[C@H](CO)NC(=O)CNC(=O)CNC(=O)CNC(=O)CNC(=O)[C@H](CO)NC(=O)CNC(=O)CNC(=O)CCCC[C@@H]1SC[C@@H]2NC(=O)N[C@@H]21)C(=O)O
KD [6]: 100 to 2000 nM | AUC of TR-FRET (HTRF ratio vs compound concentration) for ternary complex formation [7]: > 5000 auc

B5: Biotin-GGSGGGGSGGGRQLL-OH (peptide)
peptide: Biotin-GGSGGGGSGGGRQLL-OH
SMILES: CC(C)C[C@H](NC(=O)[C@H](CC(C)C)NC(=O)[C@H](CCC(N)=O)NC(=O)[C@H](CCCNC(=N)N)NC(=O)CNC(=O)CNC(=O)CNC(=O)[C@H](CO)NC(=O)CNC(=O)CNC(=O)CNC(=O)CNC(=O)[C@H](CO)NC(=O)CNC(=O)CNC(=O)CCCC[C@@H]1SC[C@@H]2NC(=O)N[C@@H]21)C(=O)O
KD [6]: 100 to 2000 nM | AUC of TR-FRET (HTRF ratio vs compound concentration) for ternary complex formation [7]: < 5000 auc

B6: Biotin-GGSGGGGSGRQLL-OH (peptide)
peptide: Biotin-GGSGGGGSGRQLL-OH
SMILES: CC(C)C[C@H](NC(=O)[C@H](CC(C)C)NC(=O)[C@H](CCC(N)=O)NC(=O)[C@H](CCCNC(=N)N)NC(=O)CNC(=O)[C@H](CO)NC(=O)CNC(=O)CNC(=O)CNC(=O)CNC(=O)[C@H](CO)NC(=O)CNC(=O)CNC(=O)CCCC[C@@H]1SC[C@@H]2NC(=O)N[C@@H]21)C(=O)O
KD [6]: < 100 nM | AUC of TR-FRET (HTRF ratio vs compound concentration) for ternary complex formation [7]: < 5000 auc

B7: Biotin-GGSGGGGSGFQLL-OH (peptide)
peptide: Biotin-GGSGGGGSGFQLL-OH
SMILES: CC(C)C[C@H](NC(=O)[C@H](CC(C)C)NC(=O)[C@H](CCC(N)=O)NC(=O)[C@H](Cc1ccccc1)NC(=O)CNC(=O)[C@H](CO)NC(=O)CNC(=O)CNC(=O)CNC(=O)CNC(=O)[C@H](CO)NC(=O)CNC(=O)CNC(=O)CCCC[C@@H]1SC[C@@H]2NC(=O)N[C@@H]21)C(=O)O
KD [6]: < 100 nM | AUC of TR-FRET (HTRF ratio vs compound concentration) for ternary complex formation [7]: < 5000 auc
